Measured values as given in PMC8399847, “Hybrid Quinolinyl Phosphonates as Heterocyclic Carboxylate Isosteres: Synthesis and Biological Evaluation against Topoisomerase 1B (TOP1B)” (Pharmaceuticals, 2021).
pIC50: −log10 of the molar value.

Assays:
Type in all cases: cell-based
[1] = system: A549 (human lung adenocarcinoma cells); test: CCK-8 cytotoxicity assay, A549; conditions: A549, 48 h, CCK-8, 50% growth inhibition, read-out: Cytotoxicity IC50 Lung A549
Procedure: (§1) The cytotoxicity of the newly synthesized quinolinylphosphonates 7 was evaluated in vitro by testing their antiproliferative activities against several human cancer cell lines: A549 (human lung adenocarcinoma cells), SKOV3 (human ovarian carcinoma), and HEK293 (human embryonic kidney). In order to analyze the selective cytotoxicity facing exclusively cancerous cell lines, cytotoxicity against non-cancerous cell lines (MRC-5, lung fibroblast cells) was also evaluated. Cell counting kit (CCK-8) assay was employed to assess growth inhibition and, cell proliferation inhibitory activities of compounds that are listed in Table 1 as IC50 values. […] According to the data presented in Table 1, in general, all these phosphorated derivatives present higher selective cytotoxicity in the A549 cell line than in the other two cell lines, SKOV3 and HEK293, although slight differences are observed compared to human ovarian carcinoma (SKOV3).
(§2) Cells were cultured according to the supplier’s instructions, A549 (ATCC® CCL-185), SKOV3 (ATCC® HTB-77), HEK293 (CLS GmbH), MRC-5 (ATCC® CCL-171™). Cells were seeded in 96-well plates at a density of 2–2.5 × 10^3 cells per well and incubated overnight in 0.1 mL of media supplied with 10% Fetal Bovine Serum (Lonza, Basel, Switzerland) in a 5% CO2 incubator at 37 °C. On day 2, drugs (concentration between 0.5–50 μM) were added and samples were incubated for 48 h. After treatment, 10 μL of cell counting kit-8 was added to each well for an additional 2 h incubation at 37 °C. The absorbance of each well was determined by an Automatic Elisa Reader System at 450 nm wavelength. CPT was purchased from Sigma-Aldrich and used as a positive control.

[2] = CCK-8 cytotoxicity assay, MRC-5 non-cancerous cells; conditions: human, MRC-5 non-malignant lung fibroblast cells, MRC-5 non-malignant lung fibroblasts
Procedure: as §1, §2

[3] = system: SKOV3 (human ovarian carcinoma); test: CCK-8 cytotoxicity assay, SKOV3; conditions: SK-OV-3, SKOV3, 48 h, CCK-8, 50% growth inhibition, read-out: Cytotoxicity IC50 Ovarian SKOV3
Procedure: as §1, §2

With `CC[C@@]1(O)C(=O)OCc2c1cc1n(c2=O)Cc2cc3ccccc3nc2-1` [CPT, Camptothecin, reference compound] the pIC50 [1] was 9.00, the IC50 at 48 h [2] was 0.017 nM and the pIC50 [3] was 8.26.
